Measured values reported in PubChem BioAssay AID720587 (Broad Institute, 2013).

The compounds below were run on A673 Ewing sarcoma viability, CellTiter-Glo ATP luminescence, 72 h (assay: A673 Ewing sarcoma viability loss – cell-based, CellTiter-Glo luminescence, cherry-pick retest, confirmation (AID 720587)).
Work on `CN(CCO)c1ccc(/C=N/Nc2nncc3ccccc23)cc1` yielded an AC35 of 19.9 µM. `C[C@H]1CN([C@@H](C)CO)S(=O)(=O)c2ccc(C#CC(C)(C)O)cc2O[C@@H]1CN(C)Cc1ccc(-c2ccccc2)cc1` gave an AC35 of 0.656 µM. Work on `COc1cccc(OC)c1C(=O)Nc1cc(C)nn1-c1nc2ccccc2[nH]1` yielded an AC35 of 13.2 µM. In the case of `C[C@@H]1CCCCO[C@H](CN(C)Cc2ccc(C(=O)Nc3ccccc3N)cc2)[C@@H](C)CN([C@H](C)CO)C(=O)c2cc(NS(=O)(=O)c3ccc(Cl)cc3)ccc2O1`, the AC35 was 14.3 µM. Work on `CCN1/C(=C/C(C)=C/c2sc3ccccc3[n+]2CC)Sc2ccccc21` yielded an AC35 of 1.36 µM. `C[C@@H]1CN([C@@H](C)CO)C(=O)c2cc(NS(=O)(=O)c3ccc(F)cc3)ccc2O[C@@H]1CN(C)Cc1ccc(C(=O)Nc2ccccc2N)cc1` was tested, and the AC35 was 11.3 µM. Work on `C[C@H]1CN([C@@H](C)CO)C(=O)c2cc(N(C)C)ccc2O[C@@H]1CN(C)Cc1ccc(C(=O)Nc2ccccc2N)cc1` yielded an AC35 of 14.1 µM. Compound `C(=Cc1nc2ccccc2o1)c1ccc2c(c1)OCO2` has an AC35 of 19 µM. In the case of `Cc1nn(Cc2ccccc2Cl)c2sc(C(=O)Nc3ccccc3N3CCOCC3)cc12`, the AC35 was 13.5 µM. `C[C@]12CC[C@H](O)C[C@H]1CC[C@@H]1C2CC[C@]2(C)[C@@H](C3=CC(=O)OC3)[C@@H](O)C[C@]12O` (some centres undefined) was tested, and the AC35 was 5.27 µM. `COc1ccc([Si](C)(C)[C@H]2[C@H](CCO)O[C@@]3(C(=O)N(c4ccccc4)c4ccccc43)[C@@H]2C)cc1` was tested, and the AC35 was 7.61 µM. In the case of `CCN1C/C(=C/c2ccc(N3CCOCC3)cc2)C(=O)/C(=C/c2ccc(N3CCOCC3)cc2)C1`, the AC35 was 3.68 µM. Work on `CCCCNC(=O)C(c1ccc(OCC(=O)OC)c(C(=O)OC)c1)N(CCOC)C(=O)CCCCCN1C(=O)NC(c2ccc(-c3ccccc3)cc2)C(C(=O)OCc2ccccc2)=C1C` (centres undefined) yielded an AC35 of 7.63 µM. `Cc1cc(C(=O)Nc2ccc3c(c2)C(=O)N(C)[C@@H]2CC[C@@H](CC(=O)NCc4ccc(-c5ccccc5)cc4)O[C@H]2CO3)no1` gave an AC35 of 8.06 µM. In the case of `Cc1cccc(N2CCN(C3C(=O)Nc4ccccc4-n4nnnc43)CC2)c1C` (centres undefined), the AC35 was 13.1 µM. Work on `Nc1ccn([C@@H]2O[C@H](CO)[C@@H](O)C2O)c(=O)n1` (some centres undefined) yielded an AC35 of 0.448 µM. Work on `COc1ccccc1C(CCNCc1ccc(N(C)C)cc1)c1ccc(OC(C)C)cc1` (centres undefined) yielded an AC35 of 4.19 µM. Compound `CCn1c(/C=N/NC(=O)c2ccc(OC)cc2)nc2ccccc21` has an AC35 of 5.62 µM. `C[C@]12CC[C@H]3[C@@H](CC[C@]4(O)C[C@@H](O)CC[C@]34C=O)[C@@]1(O)CC[C@@H]2C1=CC(=O)OC1` gave an AC35 of 0.641 µM. `Cc1c(Cc2ccc3c(c2)OCO3)sc(NC(=O)C(C)(C)C)c1C#N` showed an AC35 of 14.9 µM. `C[C@@H]1O[C@@H](O[C@H]2C[C@@H](O)[C@]3(CO)[C@@H]4C(CC[C@]3(O)C2)[C@@]2(O)CC[C@H](C3COC(=O)C3)[C@@]2(C)C[C@H]4O)[C@H](O)[C@H](O)[C@H]1O` (some centres undefined) was tested, and the AC35 was 2.3 µM. For `CN(C[C@H]1N[C@@H](CO)[C@@H]1c1ccc(C2=CCCC2)cc1)C(=O)c1cccc(F)c1`, the AC35 was 1.83 µM. Compound `CC(=O)OC1CC(OC2C(O)CC(OC3C(O)CC(OC4CCC5(C)C(CCC6C5CC(O)C5(C)C(C7=CC(=O)OC7)CCC65O)C4)OC3C)OC2C)OC(C)C1OC1OC(CO)C(O)C(O)C1O` (centres undefined) has an AC35 of 0.244 µM. For `Cc1c(CCOC(=O)CC23CC4CC(CC(C)(C4)C2)C3)sc[n+]1CC(=O)c1ccccc1`, the AC35 was 19.5 µM. For `C[C@]12CCC3C(CCC4=CC(O)CC[C@@]43/C=N/O)C1(O)CCC2C1=CC(=O)OC1` (some centres undefined), the AC35 was 0.569 µM. `COC(=O)C[C@@H]1CC[C@@H]2[C@H](COc3ccc(NC(=O)Nc4ccc(C#N)cc4)cc3C(=O)N2C)O1` was tested, and the AC35 was 23.1 µM. For `C/C(=C\c1ccccc1)C(=O)N1CCC=CC1=O`, the AC35 was 9 µM. With `CC(=NNc1ccc2ccccc2n1)c1ccccn1` the AC35 was 0.234 µM. `COc1cccc(CN2CCC2(C)C(=O)Nc2cccc3cccnc23)c1F` (centres undefined) gave an AC35 of 14.3 µM. For `COC(=O)C[C@H]1CC[C@@H]2[C@H](COc3ccc(NC(=O)Nc4cccc(Cl)c4)cc3C(=O)N2C)O1`, the AC35 was 14.1 µM. `Cc1ccc(/C=C2\SC(=S)N(CCCC(=O)NNC(=O)c3ccccc3O)C2=O)cc1` showed an AC35 of 11.3 µM. Work on `COC(=O)C[C@@H]1CC[C@@H]2[C@H](COc3ccc(NC(=O)Nc4cccc(Cl)c4)cc3C(=O)N2C)O1` yielded an AC35 of 12.5 µM. `CN(C)c1ccc(N=Nc2nc3ccccc3n2C)cc1` showed an AC35 of 8.63 µM. With `CCCCCCCCCCCCCCCCn1cc[n+](C)c1` the AC35 was 12.6 µM. `CC(C)c1oc(=O)cc2c1[C@@H](O)[C@H]1OC(=O)[C@@]3(C)CC[C@@H](O)[C@@]2(C)C13` (some centres undefined) showed an AC35 of 19.3 µM. With `CCN(Cc1ccccc1)c1ccc(/C=N/N=C(N)N)cc1` the AC35 was 6.3 µM. For `Cc1ccc(S(=O)(=O)Nc2ccc3c(c2)C(=O)N([C@H](C)CO)C[C@@H](C)[C@@H](CN(C)Cc2ccc(C(=O)Nc4ccccc4N)cc2)O3)cc1`, the AC35 was 11.9 µM. With `Cc1nc(N)nc(N)c1CCCc1ccc(Cl)c(Cl)c1` the AC35 was 2.8 µM. In the case of `COC(=O)C[C@@H]1CC[C@@H]2[C@H](COc3ccc(NC(=O)c4ccc(F)cc4)cc3C(=O)N2C)O1`, the AC35 was 23 µM. `O=C(NC(c1ccc(F)cc1)c1ccc2ccccc2n1)C1CCN(Cc2cccc(C(F)(F)F)c2)CC1` (centres undefined) gave an AC35 of 14.6 µM. With `Oc1[nH]c2ccc(Br)cc2c1N=NC(=S)N1CCOCC1` the AC35 was 0.236 µM. `COc1ccc(C(C)(O)c2nc(-c3cccc(F)c3)cs2)cc1` (centres undefined) was tested, and the AC35 was 9.33 µM. For `COc1ccc(OC)c(Cc2cnc3nc(N)nc(N)c3c2C)c1`, the AC35 was 0.196 µM. In the case of `C[C@H](CO)N1C[C@H](C)[C@@H](CN(C)Cc2ccc(Oc3ccccc3)cc2)Oc2ccc(NS(=O)(=O)c3ccc(Cl)cc3)cc2CC1=O`, the AC35 was 16.2 µM. For `C[C@@H]1CN([C@H](C)CO)S(=O)(=O)c2ccc(C#CC(C)(C)O)cc2O[C@H]1CN(C)Cc1ccc(-c2ccccc2)cc1`, the AC35 was 7.19 µM. In the case of `Cc1ccc2c(=O)n3c(nc2c1)C(Cc1ccc(O)cc1)NC(=O)c1cc2ccccc2cc1-3` (centres undefined), the AC35 was 7.13 µM. `COc1ccc(S(=O)(=O)N2CC[C@@H]3[C@@H](CO)Nc4ccc(-c5ccc(C#N)cc5)cc4[C@@H]32)cc1` gave an AC35 of 8.87 µM. Work on `C[C@H](CO)N1C[C@H](C)[C@H](CN(C)CC2CCCCC2)Oc2ccc(NC(=O)Nc3cccc4ccccc34)cc2C1=O` yielded an AC35 of 18.7 µM. Work on `N#C[C@@H]1[C@H](c2ccc(C#Cc3ccc(F)cc3)cc2)[C@@H](CO)N1C(=O)Nc1ccc(F)cc1` yielded an AC35 of 12.3 µM. In the case of `O=C(O)c1ccccc1C(=O)Nc1ccc(Oc2ccc3ccccc3c2)cc1`, the AC35 was 15.6 µM. `COC(=O)C[C@@H]1CC[C@H]2[C@H](COc3ccc(NC(=O)Nc4cc(C)cc(C)c4)cc3C(=O)N2C)O1` was tested, and the AC35 was 22.2 µM. `Oc1c(C(c2ccc(Cl)cc2)N2CCCC2)cc(Cl)c2cccnc12` (centres undefined) showed an AC35 of 1.47 µM. In the case of `NC1=CC(=O)C(=O)c2cccnc21`, the AC35 was 11.1 µM. `O=C(NCc1cccnc1)C1Cc2c(-c3ccc(Cl)cc3)ccnc2O1` (centres undefined) gave an AC35 of 7.98 µM. Compound `COc1ccc(S(=O)(=O)Nc2cccc3c2O[C@H](CN(C)Cc2ccc(C(=O)Nc4ccccc4N)cc2)[C@H](C)CN([C@@H](C)CO)C3=O)cc1` has an AC35 of 5.46 µM. In the case of `CCCCc1c(-c2ccccc2OC)ncn1Cc1ccc(C(C)(C)C)cc1`, the AC35 was 11.8 µM. In the case of `CCOc1ccc2nc(NC3=NC(c4ccc(OC)cc4)CC(=O)N3)nc(C)c2c1` (centres undefined), the AC35 was 12.1 µM. In the case of `CN(C)CC1CCC/C(=C\c2ccc(OC(=O)c3ccc(Cl)cc3)cc2)C1=O` (centres undefined), the AC35 was 0.771 µM. Compound `CN=c1scc(-c2cccs2)n1/N=C/c1ccccc1O` has an AC35 of 16.9 µM. For `C[C@@H]1CN([C@@H](C)CO)C(=O)c2cccc(NS(=O)(=O)c3ccccc3)c2O[C@@H]1CN(C)Cc1ccc(C(=O)Nc2ccccc2N)cc1`, the AC35 was 8.86 µM. With `COC(=O)C[C@H]1CC[C@H]2[C@H](COc3ccc(NC(=O)Nc4cccc(Cl)c4)cc3C(=O)N2C)O1` the AC35 was 13.6 µM. Compound `CCOc1cc2[nH]c(=S)n(Cc3ccc(C(=O)N4CCN(C)CC4)cc3)c(=O)c2cc1OCC` has an AC35 of 19.9 µM. `COc1ccc(/C=C/C(=O)c2cc(F)ccc2OC(=O)c2ccccc2OC)cc1OC` showed an AC35 of 4.54 µM. Compound `Cc1cccc(CN2C(=O)/C(=C\c3ccc(C(=O)NCCCN4CCN(C)CC4)cc3)Oc3ccccc32)c1` has an AC35 of 12.3 µM. `CCOc1cc2[nH]c(=S)n(Cc3ccc(C(=O)NCCN(CC)CC)cc3)c(=O)c2cc1OCC` gave an AC35 of 12 µM. Work on `CCc1ccc(/C=C2\SC(=S)N(CCCC(=O)NCCCN3CCOCC3)C2=O)cc1` yielded an AC35 of 18.7 µM. `O=c1ccc2ccccc2c2ccccc12` gave an AC35 of 6.04 µM. Compound `O=C1NC(=O)N(Cc2ccco2)C(=O)/C1=C/C=C/c1ccco1` has an AC35 of 5.61 µM. In the case of `CN=c1scc(-c2ccccc2F)n1/N=C/c1ccc[nH]1`, the AC35 was 10.1 µM. For `COc1ccc(-c2cc(CNc3nc(NC(C)C)nc4cc(-c5ccccc5)sc34)on2)cc1`, the AC35 was 10 µM. Work on `CN1C2CCC1/C(=C/c1ccccn1)C(=O)/C2=C\c1ccccn1` yielded an AC35 of 0.362 µM. `Cc1ccc(S(=O)(=O)N(C)C[C@@H]2Oc3cc(C#Cc4ccncc4)ccc3S(=O)(=O)N([C@@H](C)CO)C[C@H]2C)cc1` gave an AC35 of 21.1 µM. `Cc1ccc(C)c(S(=O)(=O)N2CCN(c3ncnc4sccc34)CC2)c1` showed an AC35 of 5.35 µM. `Nc1ccc(Cn2ccc3c4c(N)nc(N)nc4ccc32)cc1` showed an AC35 of 0.0589 µM. `CCCCCCCN(c1ccccc1)[C@@H]1C[C@H]2CCCC(=O)N3CC[C@@H](C1)[C@@H]23` was tested, and the AC35 was 10.2 µM. In the case of `COC(=O)C[C@@H]1CC[C@@H]2[C@H](COc3ccc(NC(=O)c4ccc(F)c(F)c4)cc3C(=O)N2C)O1`, the AC35 was 19.7 µM. For `COc1cc2c(OC(C)=O)c3c(c(-c4ccc5c(c4)OCO5)c2cc1OC)C(=O)OC3`, the AC35 was 0.0216 µM. `COc1cccc(Sc2ccccc2/C=N/NC(N)=O)c1` gave an AC35 of 2.23 µM. `CN(C)c1ccc(C=c2c3ccccc3n3c2c2c([n+]3C)CCCC2)cc1` showed an AC35 of 2.82 µM. For `COc1cccc(-c2cccc(-c3nc(C(=O)NCC(F)(F)F)cc4c3[C@H](CCO)N([S@@](=O)C(C)(C)C)C4)c2)c1`, the AC35 was 8.4 µM. Compound `N#CC(C#N)=C1C=CC=CN1/C(=C\c1ccco1)C(=O)c1ccc(Cl)cc1` has an AC35 of 3.04 µM. With `COc1ccc(S(=O)(=O)N2CC[C@@H]3[C@H](CO)Nc4ccc(-c5ccc(C#N)cc5)cc4[C@@H]32)cc1` the AC35 was 4.23 µM. For `N#C[C@H]1[C@H](c2ccc(-c3ccccc3F)cc2)[C@@H](CO)N1C(=O)c1ccccn1`, the AC35 was 14.5 µM. With `CN(C[C@H]1N[C@@H](CO)[C@@H]1c1ccc(C2=CCCC2)cc1)C(=O)c1ccc(F)cc1` the AC35 was 4.19 µM. `COc1ccc(/C=C2/NC(=O)N(CC(=O)Nc3cccc(C)c3)C2=O)cc1O` was tested, and the AC35 was 18.8 µM. With `Cc1ccc(S(=O)(=O)Nc2ccc3c(c2)C(=O)N([C@H](C)CO)C[C@H](C)[C@@H](CN(C)Cc2ccc(C(F)(F)F)cc2)OCCCC[C@H](C)O3)cc1` the AC35 was 12.8 µM. `COc1ccc(C(CCNCc2ccc(OC(C)C)cc2)C(C)C)cc1` (centres undefined) showed an AC35 of 12.6 µM. For `C[C@H](CO)N1C[C@H](C)[C@H](CN(C)Cc2ccc(C(=O)Nc3ccccc3N)cc2)Oc2ccc(NS(=O)(=O)c3cccs3)cc2C1=O`, the AC35 was 14.5 µM. `CC1(C(=O)NCc2ccco2)Cc2c(-c3cccc(C(N)=O)c3)ccnc2O1` (centres undefined) gave an AC35 of 5.1 µM.
